Experimental data taken from ChEMBL document CHEMBL1152087, “Inhibition of mevalonate 5-pyrophosphate decarboxylase by a proline-containing transition state analog” (Bioorg Med Chem Lett, 1996).

Assays:
[1] = target: T1, Diphosphomevalonate decarboxylase (Homo sapiens, UniProt P53602); test: Compound was evaluated for its inhibitory activity against Mevalonate 5-pyrophosphate decarboxylase
T1 sequence (P53602 whole entry): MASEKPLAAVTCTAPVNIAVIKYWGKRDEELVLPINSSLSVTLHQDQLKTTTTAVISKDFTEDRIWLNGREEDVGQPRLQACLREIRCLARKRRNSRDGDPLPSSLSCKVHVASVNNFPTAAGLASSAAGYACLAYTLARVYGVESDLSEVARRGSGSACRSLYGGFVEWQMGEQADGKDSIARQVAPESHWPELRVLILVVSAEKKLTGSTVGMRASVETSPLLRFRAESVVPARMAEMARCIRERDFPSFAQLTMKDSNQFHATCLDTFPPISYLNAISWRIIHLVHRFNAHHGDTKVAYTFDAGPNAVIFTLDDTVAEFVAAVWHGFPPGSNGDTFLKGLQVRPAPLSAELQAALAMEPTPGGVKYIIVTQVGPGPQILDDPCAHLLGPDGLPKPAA

[2] = target: T1, Diphosphomevalonate decarboxylase; test: Compound was evaluated for its inhibitory activity against MevPP decarboxylase

IC50 [1] | IC50 [2] | SMILES
150 nM | – | O=C(O)CSCCOP(=O)(O)OP(=O)(O)O
– | 300 nM | CN(CC(=O)O)C(=O)COP(=O)(O)OP(=O)(O)O
